This note sets out measurements from US20230057847A1, “GLP2 RECEPTOR AGONISTS AND METHODS OF USE” (The Scripps Research Institute, priority 2019, published 2023).

One may read the IC50 as the concentration that gives 50% inhibition. By EC50 is commonly meant the concentration at which the effect is half-maximal.

One data set deals with T1, mouse GLP2R (Mus musculus, UniProt Q5IXF8).
T1 sequence (Q5IXF8 1-512): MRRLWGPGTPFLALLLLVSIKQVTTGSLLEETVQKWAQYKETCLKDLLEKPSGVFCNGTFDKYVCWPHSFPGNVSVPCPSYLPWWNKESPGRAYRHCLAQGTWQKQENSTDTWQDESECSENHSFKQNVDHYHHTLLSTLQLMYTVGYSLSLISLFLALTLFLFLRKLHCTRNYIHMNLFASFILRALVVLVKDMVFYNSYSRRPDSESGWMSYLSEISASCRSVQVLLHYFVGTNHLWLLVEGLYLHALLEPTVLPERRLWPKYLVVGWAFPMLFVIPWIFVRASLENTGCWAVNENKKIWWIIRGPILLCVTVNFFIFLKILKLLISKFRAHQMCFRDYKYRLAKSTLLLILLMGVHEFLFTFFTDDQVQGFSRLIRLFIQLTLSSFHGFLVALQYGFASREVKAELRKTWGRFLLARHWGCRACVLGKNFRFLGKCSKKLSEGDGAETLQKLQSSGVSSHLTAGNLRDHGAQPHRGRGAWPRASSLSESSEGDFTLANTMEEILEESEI
Put plainly: In vitro potency on mouse GLP2R (cAMP, 665/615 ratio). The format is cell-based. The settings on record: read-out: mGLP-2R IC50.

In the next data set the target is T2, cyno monkey GLP2R (Macaca fascicularis, UniProt G1E7B0).
T2 sequence (G1E7B0 1-553): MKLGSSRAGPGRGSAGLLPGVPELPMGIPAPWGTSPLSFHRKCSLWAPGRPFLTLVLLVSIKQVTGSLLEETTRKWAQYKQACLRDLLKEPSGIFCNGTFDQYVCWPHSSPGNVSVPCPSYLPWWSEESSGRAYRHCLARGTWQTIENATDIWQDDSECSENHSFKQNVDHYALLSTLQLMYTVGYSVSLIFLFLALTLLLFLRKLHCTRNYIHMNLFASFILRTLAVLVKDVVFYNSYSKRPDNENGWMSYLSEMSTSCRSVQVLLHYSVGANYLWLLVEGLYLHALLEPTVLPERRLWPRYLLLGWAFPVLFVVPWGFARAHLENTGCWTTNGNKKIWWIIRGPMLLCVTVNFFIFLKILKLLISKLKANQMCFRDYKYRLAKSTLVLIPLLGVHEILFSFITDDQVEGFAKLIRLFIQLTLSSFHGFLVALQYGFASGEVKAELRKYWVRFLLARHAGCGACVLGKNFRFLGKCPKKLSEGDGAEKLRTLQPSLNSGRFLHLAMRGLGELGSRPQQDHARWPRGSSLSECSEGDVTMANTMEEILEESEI
Kind of data set: In vitro potency on cyno monkey GLP2R (665/615 ratio). The format is cell-based.

Data set [1] relates to mouse model of chronic colitis. Kind of data set: Chronic DSS-induced colitis in C57BL/6 mice (GLP2-2G-1-EX4-L5A). The format is in vivo. The note with it: 0.1 and 0.3 mg/kg SC QD 7 days, teduglutide 0.3 mg/kg SC QD. The method, then: Animals were treated daily for 7 days during the last DSS-induction cycle. Treatment was administered either subcutaneously (S) or intraperitoneally (IP) either once daily (QD) or twice daily (BID).
Bodyweight was monitored 3 times a week. Pharmacokinetic collection occurred 3 and 4 days prior to necropsy. At day 33, a necropsy was performed, and measurements were taken. These measurement included collecting terminal bleed; dissecting out the small intestine; measuring the length and weight of the small intestine; and recording the length and weight of the empty large intestine.

For data set [2], the system named is chronic DSS-induced colitis model. Kind of data set: Chronic DSS-induced colitis in C57BL/6 mice (GLP2-2G-10Nle-1-Ex4-L5A). The format is in vivo. The settings on record: teduglutide 0.5 mg/kg BID. As to the method: Treatment was administered either subcutaneously (S) or intraperitoneally (IP) either once daily (QD) or twice daily (BID). […] Bodyweight was monitored 3 times a week. […] At day 33, a necropsy was performed, and measurements were taken. These measurement included collecting terminal bleed; dissecting out the small intestine; measuring the length and weight of the small intestine; and recording the length and weight of the empty large intestine.

For data set [3], the system named is mouse model of environmental enteric dysfunction (EED). Put plainly: Weaning undernutrition mouse model of environmental enteric dysfunction (EED). The format is in vivo, mice. As to the method:
A weaning undernutrition model was used to assess the ability of GLP2-2G-10Nle-1K-EX4-K5 to treat environmental enteric dysfunction (EED). All dams were placed on an isocaloric Northeast Brazil (Regional Basic Diet—RBD), which was moderately deficient in protein, fat and minerals when their pups were 10 days old. At weaning (3 weeks of age), pups were placed on either a standard control diet (CD) or continued on RBD. At 4 weeks of age, weanlings were given drug or placebo (0.1 mg/kg formulated in PBS (vehicle)) once a day subcutaneously for 2-3 weeks. Bodyweight and food consumption were measured twice weekly. Stool was collected at weaning, 6 weeks of age, and 8 weeks of age for calorimetry and microbiome. Oral FITC-dextran was used as a measurement of barrier function. At 6 weeks of age, mice were euthanized, and jejunal tissue was collected for morphology, immunohistochemistry, and for chamber analysis of transmucosal resistance and permeability.

In data set [4] the test system is mouse model of acute colitis. The note with it: in vivo.
Method: (§1) Each group contained 6 mice, except for group A, which contained 4.
(§2) The body weight was monitored daily. If animals lost more than 20% of their bodyweight, they were euthanized. […] On day 11, animals were euthanized, and a necropsy was performed. The terminal bleed was collected into a heparinized collection tube and processed into plasma. The small intestine and colon were collected to measure weight and length. GI tissues were collected for histology.
The test system of data set [5] is mouse model of acute colitis. Put plainly: DSS-induced acute colitis in C57BL/6 mice (GLP2-2G-10Nle-1K-EX4-K5).
Method: as §1, §2

From the text for mouse GLP2R: To determine the potency of the long-acting GLP2R agonists against mouse GLP2R.

With `CC[C@H](C)[C@H](NC(=O)[C@H](Cc1ccccc1)NC(=O)[C@H](CC(=O)O)NC(=O)[C@H](CCCNC(=N)N)NC(=O)[C@H](C)NC(=O)[C@H](C)NC(=O)[C@H](CC(C)C)NC(=O)[C@H](CC(N)=O)NC(=O)[C@H](CC(=O)O)NC(=O)[C@H](CC(C)C)NC(=O)[C@@H](NC(=O)[C@@H](NC(=O)[C@H](CC(N)=O)NC(=O)[C@H](CCSC)NC(=O)[C@H](CCC(=O)O)NC(=O)[C@H](CC(=O)O)NC(=O)[C@H](CO)NC(=O)[C@H](Cc1ccccc1)NC(=O)[C@H](CO)NC(=O)CNC(=O)[C@H](CC(=O)O)NC(=O)CNC(=O)[C@@H](N)Cc1c[nH]cn1)[C@@H](C)O)[C@@H](C)CC)C(=O)N[C@@H](CC(N)=O)C(=O)N[C@@H](Cc1c[nH]c2ccccc12)C(=O)N[C@@H](CC(C)C)C(=O)N[C@H](C(=O)N[C@@H](CCC(N)=O)C(=O)N[C@H](C(=O)N[C@@H](CCCCN)C(=O)N[C@H](C(=O)N[C@H](C(=O)N[C@@H](CC(=O)O)C(=O)O)[C@@H](C)O)[C@@H](C)CC)[C@@H](C)O)[C@@H](C)CC` [Teduglutide, teduglutide, reference compound], the IC50 at mouse GLP2R worked out at 0.07 nM. The 50% effective concentration (EC50) on cyno monkey GLP2R amounted to 0.009 nM. Besides, in data set [1], the bodyweight loss entry is listed as “did not show the same loss in percent of bodyweight”. Besides, the colon length result is recorded as “significantly increased” in data set [2] (doses of 0.1 mg/kg and higher, vs group B); “significantly increased” in data set [5] (groups D-F (K5 0.3, 1 mg/kg; teduglutide 0.5 mg/kg) vs group B). Besides, the small intestine length entry in data set [2] (doses of 0.1 mg/kg and higher, vs untreated) is “significant increases”. Further, in data set [2] (doses of 0.3 mg/kg or higher, vs untreated), the colon weight result is “increased”. Also, the entries for the “intestinal permeability (FITC-dextran)” value in data set [3] (CD females vs untreated), in data set [3] (CD males vs untreated) and in data set [3] (RBD females or RBD males vs untreated) were “significant decreases in permeability”, “trend towards decreased permeability” and “did not significantly affect the permeability”, respectively. Further, the “small intestine wet body weight/body weight” value in data set [3] (CD females vs untreated), in data set [3] (CD males vs untreated) and in data set [3] (RBD males vs untreated) was “significant increase” each time. Besides, the crypt depths result in data set [3] (CD males vs untreated) is listed as “longer crypt depths”. The villus heights entry in data set [3] (CD males vs untreated) is recorded as “significantly longer villus heights”. In addition, the “length of the small intestine” value in data set [3] (animals weaned to CD and to RBD diet, vs untreated) was “significant increase”. Further, in data set [3] (male and female RBD mice weaned to CD, 0.1 mg/kg SC once a day), the weight gain result is reported as “trends towards greater weight gain”. The weight result in data set [3] (male and female mice weaned to RBD, 0.1 mg/kg SC once a day) is given as “trends towards worsening weight”. Further, the “detectability in plasma after dosing” value in data set [4] is “not detectable after 3 hours post treatment”. The bodyweight over time entry in data set [5] (3% DSS 5 days, daily treatment 11 days, K5 0.1-1 mg/kg SC, teduglutide 0.5 mg/kg SC, cyclosporin 20 mg/kg IP) is recorded as “did not exhibit significant changes in bodyweight”. The “small intestine length and weight” value in data set [5] (groups C-F vs untreated mice) was “significantly increased”. Besides, the villus height entry in data set [5] (jejunum, groups C-F vs untreated mice (groups A-B)) is on record as “significant increase”.
